Measurements taken from article PMC6338582, “rA1M-035, a Physicochemically Improved Human Recombinant α1-Microglobulin, Has Therapeutic Effects in Rhabdomyolysis-Induced Acute Kidney Injury” (Antioxidants & Redox Signaling, 2018).
Numbering of substitutions follows the chain as printed.

How the values were obtained:
[1] = molecular target: T1, rA1M (recombinant human α1-microglobulin; rA1M-wt and rA1M-035) (Homo sapiens, UniProt P02760); experiment: SPR (BIAcore X100), rA1M captured on immobilized anti-His antibody; format: binding
T1 construct: gene AMBP
T1 sequence (P02760 20-202): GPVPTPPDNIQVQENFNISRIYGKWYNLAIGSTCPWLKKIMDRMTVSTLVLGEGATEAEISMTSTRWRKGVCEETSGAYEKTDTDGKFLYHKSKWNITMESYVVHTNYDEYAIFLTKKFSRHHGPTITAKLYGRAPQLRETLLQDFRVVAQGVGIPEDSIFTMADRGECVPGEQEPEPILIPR

[2] = molecular target: T2, rA1M (recombinant human α1-microglobulin; rA1M-wt and rA1M-035) (Homo sapiens, UniProt P02760, N115D/N36D/R85H); experiment: as above; format: binding
T2 construct: gene AMBP
T2 sequence (P02760 20-202 N36D/R85H/N115D): T1 sequence (P02760 20-202) with N17D, R66H, N96D

[3] = SEC; 24-mL Superose 12 10/30 GL column, 20 mM Tris-HCl, pH 8.0 + 0.15 M NaCl; 100-200 ug protein loaded; unstressed samples at 0.1 mM or samples stored in PBS at the indicated concentrations, temperatures and times
[4] = molecular target: P02760; experiment: as above

## C=CC1=C(C)C2=Cc3c(C=C)c(C)c4[n]3[Fe]([Cl])[n]3c(c(C)c(CCC(=O)O)c3=CC3=NC(=C4)C(C)=C3CCC(=O)O)=CC1=N2 [heme]
[1]
  Kd: 15.8 µM
[2]
  Kd: 4.45 µM

## rA1M-035, recombinant human α1-microglobulin variant with N17D, R66H and N96D
[3]
  Monomer (%): 93%

B1: recombinant wild-type human α1-microglobulin (rA1M-wt) (protein)
chain: GPVPTPPDNIQVQENFNISRIYGKWYNLAIGSTCPWLKKIMDRMTVSTLVLGEGATEAEISMTSTRWRKGVCEETSGAYEKTDTDGKFLYHKSKWNITMESYVVHTNYDEYAIFLTKKFSRHHGPTITAKLYGRAPQLRETLLQDFRVVAQGVGIPEDSIFTMADRGECVPGEQEPEPILIPRV
[4]
  Monomer (%): 87%
